These results are taken from US20260327191A1, “GSK3a INHIBITORS AND METHODS OF USE THEREOF” (Blueprint Medicines Corporation, priority 2023, published 2026).

One assay concerns the target T1, human GSK3α (Homo sapiens, UniProt P49840).
T1 construct: Full length human GSK3α or GSK3B expressed as N-terminal GST fusion proteins; GST (N); purchased Carna Biosciences (Japan); host or cells: baculovirus host
Put plainly: In vitro enzymatic activity assay, GSK3α. The assay is classed as biochemical. To be noted: 1.0 mM ATP, 1.0 μM peptide substrate, 120 min, 25° C, read-out: Enzyme GSK3α (IC50).

For the next assay, the target named is T2, GSK3A (Homo sapiens, UniProt P49840).
T2 construct: expressed in transfected cells
T2 sequence (P49840 whole entry): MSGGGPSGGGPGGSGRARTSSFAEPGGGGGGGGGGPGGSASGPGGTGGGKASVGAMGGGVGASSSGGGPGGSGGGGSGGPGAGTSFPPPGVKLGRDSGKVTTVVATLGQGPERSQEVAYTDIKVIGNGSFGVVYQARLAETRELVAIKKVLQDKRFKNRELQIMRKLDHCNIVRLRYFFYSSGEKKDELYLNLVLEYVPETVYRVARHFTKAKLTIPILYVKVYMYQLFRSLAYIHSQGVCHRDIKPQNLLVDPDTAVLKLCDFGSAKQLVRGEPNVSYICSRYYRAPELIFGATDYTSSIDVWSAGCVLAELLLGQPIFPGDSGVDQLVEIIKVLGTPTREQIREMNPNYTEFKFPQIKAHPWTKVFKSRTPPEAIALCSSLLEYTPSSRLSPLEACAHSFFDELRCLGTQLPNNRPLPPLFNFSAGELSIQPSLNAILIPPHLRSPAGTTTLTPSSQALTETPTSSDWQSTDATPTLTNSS
Put plainly: NanoBRET cellular target engagement assay, Nanoluc-GSK3A in HEK293 cells. Format: cell-based. To be noted: NanoBRET GSK3α IC50, HEK293 cells, tracer K-8, 2 hours, 37° C.

For assay [1], the target named is T3, GSK3B (Homo sapiens, UniProt P49841). Put plainly: NanoBRET cellular target engagement assay, Nanoluc-GSK3B in HEK293 cells. Also on record: expressed in transfected cells. To be noted: NanoBRET GSK3β IC50, HEK293 cells, tracer K-8, 2 hours, 37° C. Format: cell-based. For orientation: BRET reads energy transfer from a luciferase to a nearby fluorophore.
T3 sequence (P49841 whole entry, the tested form may be a part): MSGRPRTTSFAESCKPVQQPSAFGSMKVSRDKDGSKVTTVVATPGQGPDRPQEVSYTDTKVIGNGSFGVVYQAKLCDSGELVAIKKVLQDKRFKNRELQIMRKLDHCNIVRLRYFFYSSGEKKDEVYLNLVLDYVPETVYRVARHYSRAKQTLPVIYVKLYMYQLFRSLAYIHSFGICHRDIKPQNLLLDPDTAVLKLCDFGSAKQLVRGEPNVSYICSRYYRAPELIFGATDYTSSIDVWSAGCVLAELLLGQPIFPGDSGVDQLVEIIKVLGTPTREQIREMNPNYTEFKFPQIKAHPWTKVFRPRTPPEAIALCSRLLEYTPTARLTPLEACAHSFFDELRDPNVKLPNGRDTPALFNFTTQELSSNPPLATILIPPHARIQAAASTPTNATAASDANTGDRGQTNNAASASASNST
The target in assay [2] is T3, GSK3B. Put plainly: In vitro enzymatic activity assay, GSK3β. The assay is classed as biochemical. The arrangement: Full length human GSK3α or GSK3B expressed as N-terminal GST fusion proteins; GST (N); purchased Carna Biosciences (Japan); host or cells: baculovirus host. To be noted: 1.0 mM ATP, 1.0 μM peptide substrate, 120 min, 25° C, read-out: Enzyme GSK3β (IC50).

T1 sequence (P49840 whole entry, the tested form may be a part): as the sequence (P49840 whole entry) above

What is called IC50 is the concentration that inhibits the measured activity by half. Regarding `COCc1cc(Cl)c(-n2cnc(N)c(C(=O)Nc3cncc([C@@H](C)N)c3)c2=O)c(Cl)c1` (single isomer, unassigned) [Example 67, (S)-4-amino-N-(5-(1-aminoethyl)pyridin-3-yl)-1-(2,6-dichloro-4-(methoxymethyl)phenyl)-6-oxo-1,6-dihydropyrimidine-5-carboxamide or (R)-4-amino-N-(5-(1-aminoethyl)pyridin-3-yl)-1-(2,6-dichloro-4-(methoxymethyl)phenyl)-6-oxo-1,6-dihydropyrimidine-5-carboxamide], the IC50 at human GSK3α was determined as 2.1 nM; at GSK3A, 1.4 nM; on GSK3B [1], 73.4 nM; at GSK3B [2] it was 105 nM.

In the case of `CCOC[C@H](N)c1cncc(NC(=O)c2c(N)ncn(-c3c(Cl)cc(COC)cc3Cl)c2=O)c1` (single isomer, unassigned) [Example 69, (R)-4-amino-N-(5-(1-amino-2-ethoxyethyl)pyridin-3-yl)-1-(2,6-dichloro-4-(methoxymethyl)phenyl)-6-oxo-1,6-dihydropyrimidine-5-carboxamide or (S)-4-amino-N-(5-(1-amino-2-ethoxyethyl)pyridin-3-yl)-1-(2,6-dichloro-4-(methoxymethyl)phenyl)-6-oxo-1,6-dihydropyrimidine-5-carboxamide], the IC50 on human GSK3α came to 12.5 nM; at GSK3A, 7 nM; at GSK3B [1] it was 513 nM; at GSK3B [2] it was 536 nM.

Take `COCc1cc(Cl)c(-n2cnc(N)c(C(=O)Nc3cncc([C@H](N)CC(F)F)c3)c2=O)c(Cl)c1` (single isomer, unassigned) [Example 70, (R)-4-amino-N-(5-(1-amino-3,3-difluoropropyl)pyridin-3-yl)-1-(2,6-dichloro-4-(methoxymethyl)phenyl)-6-oxo-1,6-dihydropyrimidine-5-carboxamide or (S)-4-amino-N-(5-(1-amino-3,3-difluoropropyl)pyridin-3-yl)-1-(2,6-dichloro-4-(methoxymethyl)phenyl)-6-oxo-1,6-dihydropyrimidine-5-carboxamide]: the 50% inhibitory concentration (IC50) at human GSK3α turned out to be 2.9 nM; against GSK3A it was 2.4 nM; against GSK3B [1] it was 201 nM; on GSK3B [2], 145 nM.

As to `COc1cc(Cl)c(-n2cnc(N)c(C(=O)Nc3cncc([C@@H](C)N)c3)c2=O)c(Cl)c1` (single isomer, unassigned) [Example 74, (R)-4-amino-N-(5-(1-aminoethyl)pyridin-3-yl)-1-(2,6-dichloro-4-methoxyphenyl)-6-oxo-1,6-dihydropyrimidine-5-carboxamide or (S)-4-amino-N-(5-(1-aminoethyl)pyridin-3-yl)-1-(2,6-dichloro-4-methoxyphenyl)-6-oxo-1,6-dihydropyrimidine-5-carboxamide], the IC50 was found to be 9.6 nM at human GSK3α, 6.6 nM against GSK3A, 363 nM on GSK3B [1] and 465 nM at GSK3B [2].

With `COc1cc(Cl)c(-n2cnc(N)c(C(=O)Nc3cncc([C@@H]4COCCCN4)c3)c2=O)c(Cl)c1` (single isomer, unassigned) [Example 75, (R)-N-(5-(1,4-oxazepan-3-yl)pyridin-3-yl)-4-amino-1-(2,6-dichloro-4-methoxyphenyl)-6-oxo-1,6-dihydropyrimidine-5-carboxamide or (S)-N-(5-(1,4-oxazepan-3-yl)pyridin-3-yl)-4-amino-1-(2,6-dichloro-4-methoxyphenyl)-6-oxo-1,6-dihydropyrimidine-5-carboxamide], the IC50 at human GSK3α amounted to 2.4 nM; against GSK3A, 3.6 nM; against GSK3B [1] it was 186 nM; on GSK3B [2] it was 106 nM.

As for `COc1cc(Cl)c(-n2cnc(N)c(C(=O)Nc3cnc(F)c([C@@H]4CCCCN4)c3)c2=O)c(Cl)c1` (single isomer, unassigned) [Example 76, (S)-4-amino-1-(2,6-dichloro-4-methoxyphenyl)-N-(6-fluoro-5-(piperidin-2-yl)pyridin-3-yl)-6-oxo-1,6-dihydropyrimidine-5-carboxamide or (R)-4-amino-1-(2,6-dichloro-4-methoxyphenyl)-N-(6-fluoro-5-(piperidin-2-yl)pyridin-3-yl)-6-oxo-1,6-dihydropyrimidine-5-carboxamide], the IC50 on human GSK3α turned out to be 16 nM; at GSK3A, 9.4 nM; against GSK3B [1], 591 nM; at GSK3B [2], 854 nM.

For the compound `COc1cc(Cl)c(-n2cnc(N)c(C(=O)Nc3cncc(C4CCC(C)N4)c3)c2=O)c(Cl)c1` (single isomer, unassigned) [Example 78], the IC50 at human GSK3α is 11.4 nM; on GSK3A, 7.7 nM; against GSK3B [1], 703 nM; at GSK3B [2] it was 958 nM.

On to `COc1cc(Cl)c(-n2cnc(N)c(C(=O)Nc3cncc(C4CCC(C)N4)c3)c2=O)c(Cl)c1` (single isomer, unassigned) [Example 79], for which the IC50 on human GSK3α is 4.3 nM; at GSK3A, 2.4 nM; against GSK3B [1], 170 nM; on GSK3B [2], 317 nM.

On to `CN[C@@H](COC)c1cncc(NC(=O)c2c(N)ncn(-c3c(Cl)cc(OC)cc3Cl)c2=O)c1` (single isomer, unassigned) [Example 80, (R)-4-amino-1-(2,6-dichloro-4-methoxyphenyl)-N-(5-(2-methoxy-1-(methylamino)ethyl)pyridin-3-yl)-6-oxo-1,6-dihydropyrimidine-5-carboxamide or (S)-4-amino-1-(2,6-dichloro-4-methoxyphenyl)-N-(5-(2-methoxy-1-(methylamino)ethyl)pyridin-3-yl)-6-oxo-1,6-dihydropyrimidine-5-carboxamide], for which the IC50 stood at 2.5 nM on human GSK3α, 2.9 nM against GSK3A, 271 nM against GSK3B [1] and 270 nM on GSK3B [2].

As to `COc1cc(Cl)c(-n2cnc(N)c(C(=O)Nc3cncc([C@H]4CCC[C@H](C)N4)c3)c2=O)c(Cl)c1` (single isomer, unassigned) [Example 81], the IC50 came out at 5.9 nM on human GSK3α, 2.3 nM against GSK3A, 117 nM against GSK3B [1] and 314 nM at GSK3B [2].

For `COc1cc(Cl)c(-n2cnc(N)c(C(=O)Nc3cncc(C(N)CC(F)F)c3)c2=O)c(Cl)c1` (single isomer, unassigned) [Example 82, (R)-4-amino-N-(5-(1-amino-3,3-difluoropropyl)pyridin-3-yl)-1-(2,6-dichloro-4-methoxyphenyl)-6-oxo-1,6-dihydropyrimidine-5-carboxamide or (S)-4-amino-N-(5-(1-amino-3,3-difluoropropyl)pyridin-3-yl)-1-(2,6-dichloro-4-methoxyphenyl)-6-oxo-1,6-dihydropyrimidine-5-carboxamide], the IC50 at human GSK3α was 4.5 nM; against GSK3A it was 4 nM; on GSK3B [1] it was 269 nM; on GSK3B [2] it was 248 nM.

As to `COc1cc(Cl)c(-n2cnc(N)c(C(=O)Nc3cncc(C4CCCC(C)N4)c3)c2=O)c(Cl)c1` (single isomer, unassigned) [Example 83], the IC50 on human GSK3α was 7 nM; on GSK3A, 4.1 nM; against GSK3B [1], 336 nM; on GSK3B [2], 490 nM.

Take `COc1cc(Cl)c(-n2cnc(N)c(C(=O)Nc3cncc([C@H]4CCC[C@H](C)N4)c3)c2=O)c(Cl)c1` (single isomer, unassigned) [Example 84]: the IC50 on human GSK3α is 3.8 nM; on GSK3A, 2.5 nM; against GSK3B [1], 179 nM; at GSK3B [2], 254 nM.

Consider `COc1cc(Cl)c(-n2cnc(N)c(C(=O)Nc3cncc(C(N)CC(F)F)c3)c2=O)c(Cl)c1` (single isomer, unassigned) [Example 85, (R)-4-amino-N-(5-(1-amino-3,3-difluoropropyl)pyridin-3-yl)-1-(2,6-dichloro-4-methoxyphenyl)-6-oxo-1,6-dihydropyrimidine-5-carboxamide or (S)-4-amino-N-(5-(1-amino-3,3-difluoropropyl)pyridin-3-yl)-1-(2,6-dichloro-4-methoxyphenyl)-6-oxo-1,6-dihydropyrimidine-5-carboxamide], for which the IC50 on human GSK3α is 9.4 nM; at GSK3A, 4.2 nM; against GSK3B [1] it was 374 nM; on GSK3B [2], 551 nM.

On to `Cc1cc(C(F)(F)F)cc(C)c1-n1cnc(N)c(C(=O)Nc2cncc(C3CCC(C)N3)c2)c1=O` (single isomer, unassigned) [Example 87], for which the IC50 at human GSK3α was determined as 17.9 nM; at GSK3A it was 7.6 nM; against GSK3B [1], 543 nM; at GSK3B [2] it was 1130 nM.

For the compound `CCC(N)c1cncc(NC(=O)c2c(N)ncn(-c3c(C)cc(C(F)(F)F)cc3C)c2=O)c1` (single isomer, unassigned) [Example 88, (R)-4-amino-N-(5-(1-aminopropyl)pyridin-3-yl)-1-(2,6-dimethyl-4-(trifluoromethyl)phenyl)-6-oxo-1,6-dihydropyrimidine-5-carboxamide or (S)-4-amino-N-(5-(1-aminopropyl)pyridin-3-yl)-1-(2,6-dimethyl-4-(trifluoromethyl)phenyl)-6-oxo-1,6-dihydropyrimidine-5-carboxamide], the IC50 at human GSK3α worked out at 15.4 nM; against GSK3A, 8.1 nM; on GSK3B [1], 454 nM; on GSK3B [2], 1020 nM.
